Data on one molecule can be found in patent US20130190514A1, “PHENYLALKYL N-HYDROXYUREAS FOR TREATING LEUKOTRIENE RELATED PATHOLOGIES” (TALLIKUT PHARMACEUTICALS, INC., priority 2010, published 2013).

Test [1] concerns high sensitivity C reactive protein (hsCRP). Nature of the test: hsCRP in blood by immunoturbidimetric method, Phase 2 ACS study. Type of test: in vivo, human. On the procedure:
(§1) In this randomized, placebo-controlled study, 191 patients were randomized 3 weeks after an acute coronary syndrome (ACS) to receive 25, 50, or 100 mg N-[3-[5-[(4-fluorophenyl)methyl]-2-thienyl]-1-methyl-2-propynyl]-N-hydroxyurea or placebo qd for 12 weeks. Baseline assessments were performed at the start of treatment and these baseline results were compared with repeat assessments during various follow-up periods during the treatment study. A subset of 93 patients who had undergone a Multidetector (64 slice coronary) Computerized Tomography (MDCT) examination at baseline continued on study medication for a total of 24 weeks and underwent a repeat scan. Patients received a single daily oral dose of 25 mg, 50 mg, or 100 mg of N-[3-[5-[(4-fluorophenyl)methyl]-2-thienyl]-1-methyl-2-propynyl]-N-hydroxyurea or matching placebo by administering 2 capsules as prepared in Example 3 for 12 weeks or 24 weeks. Blood samples for measurement of ex vivo leukotriene B4 (LTB4) and high sensitivity C reactive protein (hsCRP), and urine samples for measurement of urinary leukotriene E4 (LTE4) levels were collected pre-dose on weeks 2, 6 and 12. Blood samples were assayed for ex vivo LTB4 by enzyme-linked immunosorbent assay, and for hsCRP by an immunoturbidimetric method. Urine samples were assayed for LTE4 using Liquid Chromatography with Tandem Mass Spectrometry (LC/MS/MS).

The next test has as its system leukotriene E4 (LTE4). Nature of the test: Urinary LTE4 by LC/MS/MS, Phase 2 ACS study. Type of test: in vivo, human. The conditions noted are these: all doses (25, 50, 100 mg qd). Here is the method: as §1
Another test concerns non-calcified plaque. Nature of the test: Coronary plaque by MDCT (64-slice CT), Phase 2 ACS study, 24-week substudy. The test is classed as in vivo, human. The conditions noted are these: all three doses, serial MDCT images at 24 weeks. On the procedure:
In this randomized, placebo-controlled study, 191 patients were randomized 3 weeks after an acute coronary syndrome (ACS) to receive 25, 50, or 100 mg N-[3-[5-[(4-fluorophenyl)methyl]-2-thienyl]-1-methyl-2-propynyl]-N-hydroxyurea or placebo qd for 12 weeks. Baseline assessments were performed at the start of treatment and these baseline results were compared with repeat assessments during various follow-up periods during the treatment study. A subset of 93 patients who had undergone a Multidetector (64 slice coronary) Computerized Tomography (MDCT) examination at baseline continued on study medication for a total of 24 weeks and underwent a repeat scan. For those patients who continued on study medication for a total of 24 weeks, contrast-enhanced CT examination was performed at baseline and after 24 weeks of treatment with a 64-slice scanner (GE LightSpeed VCT; GE Healthcare, USA). Target plaque lesions were defined prospectively as non-calcified plaque with measurable low-density components of <60 HU situated in the proximal or middle portion of either the left main, left anterior ascending, left circumflex or right coronary artery causing at least 20% luminal stenosis. Prior to analysis of results, patients had their MDCT examinations evaluated twice by the same reviewer and also by a second reviewer for evaluation of intraobserver and interobserver variability of measurements.

In another test the test system is leukotriene B4 (LTB4). Nature of the test: Ex vivo LTB4 in blood by ELISA, Phase 2 ACS study. The conditions noted are these: trough drug levels. The arrangement: species or system human. Here is the method: as §1
Test [2] relates to inflammatory genes, including IL-6, IL 8, IL-10, MMP9, I-kappa-B, osteopontin. Nature of the test: Inflammatory gene expression in carotid plaques (TaqMan), Phase 2 CEA study. Type of test: in vivo, human. The conditions noted are these: rupture-prone plaque subtypes, 100 mg qd oral, 12 weeks. Here is the method:
In this randomized, double blind, placebo-controlled study, 50 patients with significant carotid artery stenosis (60-90%) were treated once daily for 12 weeks with orally administered 100 mg N-[3-[5-[(4-fluorophenyl)methyl]-2-thienyl]-1-methyl-2-propynyl]-N-hydroxyurea or placebo prior to undergoing CEA, at which time endarterectomy tissue (plaque) was collected and stored for subsequent tissue analysis. Baseline assessments are performed at the start of treatment and these baseline results were compared with repeat assessments during various follow-up periods of treatment. The treatment was conducted for twelve weeks at which time these baseline assessments were performed and compared.
At the end of 12 weeks treatment with 100 mg of N-[3-[5-[(4-fluorophenyl)methyl]-2-thienyl]-1-methyl-2-propynyl]-N-hydroxyurea, patients underwent CEA, at which time endarterectomy tissue (plaque) was collected, fixed in 10% formalin and paraffin blocks, and stored for subsequent tissue analysis. […] A portion of each of the plaques was also analyzed for inflammatory gene expression after isolation of total RNA and reverse transcription using a TaqMan® High Capacity cDNA assay.
LTB4, LTE4 and hsCRP biomarker data were assessed using change from baseline comparisons and an ANCOVA was used to compare the treatment groups where the covariate was the baseline value of the outcome measure. […]

In the case of `CC(C#Cc1ccc(Cc2ccc(F)cc2)s1)N(O)C(N)=O` (centres unmarked) [VIA-2291, N-[3-[5-[(4-fluorophenyl)methyl]-2-thienyl]-1-methyl-2-propynyl]-N-hydroxyurea], in test [1] (100 mg group, P<0.01), the “hsCRP within group between 12 and 24 weeks” value is recorded as “significant reduction”. In test [1] (100-mg group at 24 weeks, P=0.0002), the “decrease in hsCRP compared with placebo” value worked out at 67%. In addition, in the test on leukotriene E4 (LTE4), the “urinary leukotriene LTE4” value is recorded as “significantly reduced”. In addition, in the test with non-calcified plaque, the “new plaque lesions compared with placebo” value was “reduced” and the “non-calcified plaque volume compared with placebo” value is reported as “reduced”. Further, the “inhibition of ex vivo LTB4” value in the test on leukotriene B4 (LTB4) (100-mg group, in >90% of patients) is recorded as “approximately 80%”. The “ex vivo leukotriene LTB4” value in the test on leukotriene B4 (LTB4) (all doses (25, 50, 100 mg qd), P<0.0001, dose-dependent) was “significantly reduced”. Also, in test [2], the “expression of inflammatory genes, including IL-6, IL 8, IL-10, MMP9, I-kappa-B, osteopontin” value is on record as “reduction in expression”.
